Measurements: patent US20100197789A1, “ANTI-OBESITY AGENT AND USE THEREOF” (National University Corporation Nagoya University, priority 2006, published 2010)

Key:
Format in all cases: in vivo, mouse
[1] = system: DIO mice; assay: Food intake amount and body weight, 5 week-continuous oral administration, diet-induced obese (DIO) mice; settings: (±)-baclofen 5 mg/kg/day, SKF97541 0.3 mg/kg/day, 3-APPA 5 mg/kg/day; for body weight increase / food intake amount: DIO mice (high fat diet), oral in drinking water 5 weeks; for time after start of administration from which body weight increase suppression was significant / time after start of administration from which food intake suppression was significant: DIO mice, continued until 5 weeks
Procedure: (§1) 5 week-old male C57BL/6N mice (body weight 17 to 20 g, CLEA Japan, Inc.) were purchased and individually fed in tip cages. To the mice, normal pellet diet (CE-2) was administered under free water intake and free food intake. A body weight and a food intake amount over 24 hours were measured every day from the start of feeding. On day 3 after the start of feeding, blood was taken from an orbit after 6 hour-fasting and a blood glucose level and a blood insulin concentration were measured. The mice were divided into a control group and a baclofen treated group (10 mice per each group) so that a body weight, a 24 hour-food intake amount, a blood glucose level, and a blood insulin concentration were equal, and diet induced-obesity (DIO) was started to be induced by administration of high fat diet (High Fat Diet 32, energy fat ratio 60%, CLEA Japan, Inc.) (DIO mice). At the same time as the start of administering the high fat diet, (±)-baclofen was dissolved in drinking water and 5 week-continuous oral administration was started in a dosage of 5 mg per 1 kg of a body weight in 1 day (5 mg/kg/day). A food intake amount and a body weight were measured over time during the 5 week-administration period. (±)-baclofen (5 mg/kg/day) was orally administered also to C57BL/6N mice (lean mice) that are non-obese mice to which normal diet was administered in the same manner as described above, and a food intake amount and a body weight were measured over time.
(§2) 5 week-old male C57BL/6N mice (body weight 17 to 20 g, CLEA Japan, Inc.) were purchased and individually fed in tip cages. Normal pellet diet (CE-2) was administered to the mice under free water intake and free food intake. A body weight and a food intake amount over 24 hours were measured every day from the start of feeding. On day 3 after the start of feeding, blood was taken from an orbit after 6 hour-fasting and a blood glucose level and a blood insulin concentration were measured. The mice were divided into a control group, an SKF97541 treated group and a 3-APPA treated group (10 mice per each group) so that a body weight, a 24 hour-food intake amount, a blood glucose level, and a blood insulin concentration were equal, and diet induced-obesity (DIO) was started to be induced by administration of high fat diet (High Fat Diet 32, energy fat ratio 60%, CLEA Japan, Inc.) (DIO mice). At the same time as the start of administering the high fat diet, SKF97541 (0.3 mg/kg/day) or 3-APPA (5 mg/kg/day) was dissolved in drinking water and 5 week-continuous oral administration was started. A food intake amount and a body weight were measured over time during the 5 week-administration period. SKF97541 (0.3 mg/kg/day) or 3-APPA (5 mg/kg/day) was orally administered also to C57BL/6N mice (lean mice) to which normal diet was administered in the same manner as described above, and a food intake amount and a body weight were measured over time.

[2] = system: db/^+m mice; assay: Food intake amount and body weight, 5 week-continuous oral administration, non-obese db/+m mice; settings: SKF97541 10×10^−6 M, 3-APPA 100×10^−6 M in drinking water
Procedure: 5 week-old male C57BL/KsJ-db/^+m mice (db/^+m mice: body weight 19 to 23 g, Japan SLC, Inc.) were purchased and individually fed in tip cages. To the db/^+m mice, normal pellet diet (CE-2) was administered under free water intake and free food intake. A body weight and a food intake amount over 24 hours were measured every day from the start of feeding. On day 3 after the start of feeding, blood was taken from an orbit after 6 hour-fasting and a blood glucose level and a blood insulin concentration were measured. The db/^+m mice were divided into two groups (10 mice per each group) so that a body weight, a 24 hour-food intake amount, a blood glucose level, and a blood insulin concentration were equal, and defined to be a control group and a baclofen treated group. After division into the groups, from day 5 after the start of feeding, (±)-baclofen was dissolved in drinking water and 5 week-continuous oral administration was started in the baclofen treated group. (±)-baclofen was dissolved in drinking water at a concentration of 2.7 mg/dl used in the high concentration treated group in the experiment of db/db mice. A food intake amount and a body weight of the db/^+m mice were measured over time, and a rectal temperature was measured 5 weeks after the start of the administration. Blood was taken after the 5-week administration of (±)-baclofen, and the db/^+m mice were sacrificed by cervical luxation.
5 week-old male C57BL/KsJ-db/db mice (db/db mice: body weight 19 to 25 g, Japan SLC, Inc.) were purchased and individually fed in tip cages. Normal pellet diet (CE-2) was administered to the db/db mice under free water intake and free food intake. A body weight and a food intake amount over 24 hours were measured every day from the start of feeding. On day 3 after the start of feeding, blood was taken from an orbit after 6 hour-fasting and a blood glucose level and a blood insulin concentration were measured. The db/db mice were divided into three groups (10 mice per each group) so that a body weight, a 24 hour-food intake amount, a blood glucose level, and a blood insulin concentration were equal and defined to be a control group, an SKF97541 treated group and a 3-APPA treated group. SKF97541 and 3-APPA were dissolved in drinking water at respective concentrations of 10×10^−6 M and 100×10^−6 M, and continuously orally administered for 5 weeks, and a food intake amount and a body weight were measured over time during the administration period. SKF97541 (10×10^−6 M) or 3-APPA (100×10^−6M) was dissolved in drinking water and orally administered also to db/^+m mice, and a food intake amount and a body weight were measured over time in the same manner.

[3] = system: DIO mice; assay: Fasting blood glucose, HbA1c, blood insulin, plasma leptin and adiponectin after 5-week administration, DIO mice; settings: (±)-baclofen 5, SKF97541 0.3, 3-APPA 5 mg/kg/day, vs control; for fasting blood glucose level / fasting blood insulin concentration: 6 hour-fasting after 5 weeks oral; for HbA1c value: after 5 weeks oral
Procedure: The blood glucose level was measured by a glucose analyzer Antisense (HORIBA, Ltd.) promptly after taking blood from an orbit. HbA1c was measured by a glycohemoglobin analyzer HLC-723 GHbV (manufactured by TOSOH Corporation) after preserving blood at −80° C.
After taking blood from an orbit by using a hematocrit tube coated with heparin, blood was centrifuged at 3500 rpm at 4° C. for 15 minutes, and plasma was preserved at −80° C. The plasma concentrations of insulin, leptin and adiponectin were measured by the ELISA method (levis insulin kit (mouse): Shibayagi Co., Ltd., Morinaga Leptin assay kit: Morinaga Institute of Biological Science, Inc., Mouse/rat adiponectin ELISA kit: OTSUKA Pharmaceutical Co., Ltd.).
(±)-baclofen (5 mg/kg/day), SKF97541 (0.3 mg/kg/day) or 3-APPA (5 mg/kg/day) was orally administered to DIO mice for 5 weeks according to the above described method, and then blood was taken from an orbit after 6 hour-fasting and a blood glucose level, an HbA1c value and a blood insulin concentration were measured.
(±)-baclofen (5 mg/kg/day) was orally administered to DIO mice for 5 weeks according to the above described method, and then, blood was taken from an orbit after 6 hour-fasting, and a plasma leptin concentration and a plasma adiponectin concentration were measured. The DIO mice were sacrificed by cervical luxation after the end of the 5-week administration, and then epididymal white adipose tissues and subcutaneous white adipose tissues were surgically removed, and after measuring the weights, they were fixed in 4% formaldehyde. The epididymal white adipose tissues were cut out to prepare a section with a thickness of 8 μm and subjected to Hematoxylin-Eosin stain (H-E stain) and a form (size) of a fat cell was examined by using an image analysis system, Neurolucida (MicroBrightField Japan, Inc.).

[4] = system: lean mice; assay: Food intake amount and body weight, 5 week-continuous oral administration, non-obese lean mice; settings: lean mice (normal diet); oral 5 weeks; (±)-baclofen 5 mg/kg/day, SKF97541 0.3 mg/kg/day, 3-APPA 5 mg/kg/day
Procedure: as §1, §2

[5] = system: db/db mice; assay: Food intake amount and body weight, 5 week-continuous oral administration in drinking water, db/db mice; settings: SKF97541 10×10^−6 M, 3-APPA 100×10^−6 M in drinking water; for time after start of administration from which body weight increase suppression was significant / time after start of administration from which cumulative food intake suppression was significant: continued until end of experiment; for body weight increase / cumulative food intake amount: oral, 5 weeks

SMILES	body weight increase [1]	food intake amount [1]	time after start of administration from which body weight increase suppression was significant [1]	time after start of administration from which food intake suppression was significant [1]	body weight [2]	food intake amount [2]	fasting blood glucose level [3]	fasting blood insulin concentration [3]	HbA1c value [3]	body weight [4]	food intake amount [4]	time after start of administration from which body weight increase suppression was significant [5]	time after start of administration from which cumulative food intake suppression was significant [5]	body weight increase [5]	cumulative food intake amount [5]
CP(=O)(O)CCCN [SKF97541, 3-aminopropyl-(methyl)phosphinic acid]	significantly suppressed	significantly suppressed	1 week	1 week	did not give significant effects	did not give significant effects	significant decreases	significant decreases	significant decreases	did not give significant effects	did not give significant effects	1 week	2 weeks	significantly suppressed	significantly suppressed
NCCCP(=O)(O)O [3-APPA, 3-aminopropylphosphonic acid]	significantly suppressed	significantly suppressed	1 week	1 week	did not give significant effects	did not give significant effects	significant decreases	significant decreases	significant decreases	did not give significant effects	did not give significant effects	1 week	1 weeks	significantly suppressed	significantly suppressed
